Test results reported in ChEMBL document CHEMBL1158320, “Antiandrogenic natural Diels--Alder-type adducts from Brosimum rubescens” (J Nat Prod, 1997).
Calls of active or inactive are those of the source. The rule behind the calls is not given here.

Experiments:
Settings in all cases: Prostate gland
Rattus norvegicus [1] = species on record: Rattus norvegicus; experiment: Inhibition of 5alpha reductase in Wistar rat ventral prostate at 100 ug/mL by radiochromatography; format: tissue-based
Rattus norvegicus [2] = species on record: Rattus norvegicus; experiment: Inhibition of 5alpha reductase in Wistar rat ventral prostate at 50 ug/mL by radiochromatography; format: tissue-based
Rattus norvegicus [3] = species on record: Rattus norvegicus; experiment: Inhibition of 5alpha reductase in Wistar rat ventral prostate at 200 ug/mL by radiochromatography; format: tissue-based
[4] = molecular target: T1, Androgen receptor (Rattus norvegicus) (UniProt P15207); experiment: Displacement of [3H]dihydrotestosterone from androgen receptor in Wistar rat ventral prostate at 200 ug/mL by liquid scintillation counting
T1 sequence (whole entry): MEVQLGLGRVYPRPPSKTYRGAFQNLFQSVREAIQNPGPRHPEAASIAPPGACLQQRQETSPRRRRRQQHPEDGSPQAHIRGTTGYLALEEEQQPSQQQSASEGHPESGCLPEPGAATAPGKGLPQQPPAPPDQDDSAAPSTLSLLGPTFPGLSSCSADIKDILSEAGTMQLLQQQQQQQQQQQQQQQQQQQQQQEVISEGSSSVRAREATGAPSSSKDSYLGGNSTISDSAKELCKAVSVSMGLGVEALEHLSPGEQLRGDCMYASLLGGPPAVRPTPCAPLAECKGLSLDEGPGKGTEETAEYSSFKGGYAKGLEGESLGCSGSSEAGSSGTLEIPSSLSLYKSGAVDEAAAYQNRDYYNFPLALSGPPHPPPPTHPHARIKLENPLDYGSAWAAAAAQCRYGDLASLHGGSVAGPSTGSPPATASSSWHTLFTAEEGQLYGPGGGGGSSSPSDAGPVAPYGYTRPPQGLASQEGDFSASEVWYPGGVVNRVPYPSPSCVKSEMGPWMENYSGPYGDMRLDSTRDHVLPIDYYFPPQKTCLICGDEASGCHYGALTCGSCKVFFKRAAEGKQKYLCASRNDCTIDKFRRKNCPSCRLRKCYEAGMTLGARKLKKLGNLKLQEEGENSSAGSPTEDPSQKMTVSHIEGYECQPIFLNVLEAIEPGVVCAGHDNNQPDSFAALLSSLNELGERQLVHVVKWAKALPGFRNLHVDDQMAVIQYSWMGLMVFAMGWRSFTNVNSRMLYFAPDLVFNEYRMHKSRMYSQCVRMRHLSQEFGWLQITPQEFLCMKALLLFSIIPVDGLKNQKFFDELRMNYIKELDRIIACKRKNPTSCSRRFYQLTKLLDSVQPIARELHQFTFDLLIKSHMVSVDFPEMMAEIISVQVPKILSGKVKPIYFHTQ

[5] = molecular target: T1, Androgen receptor (Rattus norvegicus); experiment: Displacement of [3H]dihydrotestosterone from androgen receptor in Wistar rat ventral prostate at 100 ug/mL by liquid scintillation counting; format: tissue-based
[6] = molecular target: T1, Androgen receptor (Rattus norvegicus); experiment: Displacement of [3H]dihydrotestosterone from androgen receptor in Wistar rat ventral prostate at 50 ug/mL by liquid scintillation counting; format: tissue-based

| SMILES | inhibition (Rattus norvegicus [1]) [%] | inhibition (Rattus norvegicus [2]) [%] | inhibition (Rattus norvegicus [3]) [%] | inhibition [4] [%] | inhibition [5] [%] | inhibition [6] [%] | Activity (Rattus norvegicus [2]) |
| --- | --- | --- | --- | --- | --- | --- | --- |
| COc1cc(O)ccc1[C@H]1Oc2cc3oc(=O)ccc3cc2[C@@H]2C=C(C)C[C@@H](c3ccc(O)cc3)[C@H]12 | 28.8 | 5.4 | 59.2 | 78.6 | 73.3 | 62.5 | – |
| CC[C@H]1C[C@H]2[C@@H]3CCC4=CC(=O)CC[C@@H]4[C@H]3CC[C@]2(C)[C@H]1O | – | – | – | – | – | – | Active |
| COc1cc(O)ccc1[C@@H]1CC(C)=C[C@H]2c3cc4ccc(=O)oc4cc3O[C@H](c3ccc(O)c(O)c3)[C@H]21 | 8.4 | 0.2 | 19.8 | – | -8.6 | – | – |
| COc1cc(O)ccc1[C@H]1Oc2cc3oc(=O)ccc3cc2[C@@H]2C=C(C)C[C@@H](c3ccc(O)cc3OC)[C@H]12 | 49.9 | 8.6 | 72.3 | 62 | 70.9 | 60.3 | – |
| COc1cc(O)ccc1[C@H]1Oc2cc3oc(=O)ccc3cc2[C@@H]2C=C(C)C[C@@H](c3ccc(O)c(O)c3)[C@H]12 | 4.8 | 0.3 | 5.2 | – | – | – | – |
| COc1cc(O)ccc1[C@@H]1CC(C)=C[C@H]2c3cc4ccc(=O)oc4cc3O[C@H](c3ccc(O)cc3)[C@H]21 | 44.1 | 3.4 | 69.2 | 61.5 | 57.5 | 56.5 | – |
